Results on one molecule are retold here after patent publication US7262189B2, “Benzothiazine and benzothiadiazine derivatives, method for preparing same and pharmaceutical compositions containing same” (Les Laboratoires Server, priority 2001, dated 2007).

The structures appear in SMILES notation. Like-named read-outs stand apart in the source and are kept apart here.

The test system of this experiment is AMPA receptors. Kind of experiment: Excitatory fluxes induced by AMPA in Xenopus oocytes (2-electrode voltage-clamp). As to conditions: Xenopus oocytes injected with rat cerebral cortex poly-(A+) mRNA, AMPA 10 μM. It counts as cell-based. How it is done: Study of the Excitatory Fluxes Induced by AMPA in Xenopus oocytes
mRNAs are prepared from cerebral cortex of male Wistar rat by the guanidinium thiocyanate/phenol/chloroform method. The poly-(A^+) mRNAs are isolated by chromatography on oligo-dT cellulose and injected in an amount of 50 ng per oocyte. The oocytes are left to incubate for 2 to 3 days at 18° C. to allow expression of the receptors and are then stored at from 8 to 10° C.
Electrophysiological recording is carried out in a Plexiglass® chamber at from 20 to 24° C. in OR2 medium (J. Exp. Zool., 1973, 184, 321-334) by the 2-electrode “voltage-clamp” method, a 3rd electrode being placed in the bath to serve as reference.
All the compounds are administered via the incubation medium and the electric current is measured at the end of the period of administration. AMPA is used at a concentration of 10 μM. For each compound studied, the concentration that doubles (EC2×) or quintuples (EC5×) the intensity of the current induced by AMPA alone (5 to 50 nA) is determined.

`O=S1(=O)NC2CCCN2c2ccc(OC(=S)Oc3ccccc3)cc21` (centres unmarked) [Example 2, O-(5,5-Dioxido-2,3,3a,4-tetrahydro-1H-pyrrolo[2,1-c][1,2,4]-benzothiadiazin-7-yl)O-phenyl thiocarbonate]: the Concentration doubling (EC2×) or quintupling (EC5×) the AMPA current reads like this: (read-out: EC2× (concentration that doubles the intensity of the current induced by AMPA alone)) 1.8 µM; (read-out: EC5× (concentration that quintuples the intensity of the current induced by AMPA alone)) 9.6 µM.
